Measurements published in the CheMixHub drug solubility set.

Test: xn = mol fraction of the nth substance listed, in the solute-free solvent

Nc1cccc2ccncc12 + CO + O
solubility (g/100 g solution)
Settings	278.15 K	283.15 K	288.15 K	293.15 K	298.15 K	303.15 K	308.15 K	313.15 K	318.15 K	323.15 K
x2 = 0.05881	0.0271	0.0315	0.0363	0.0431	0.0495	0.0576	0.0677	0.079	0.0916	0.107
x2 = 0.1233	0.0301	0.035	0.0406	0.0481	0.0556	0.0648	0.0763	0.0893	0.104	0.122
x2 = 0.1942	0.0368	0.0428	0.0497	0.0588	0.0681	0.0794	0.0937	0.11	0.128	0.15
x2 = 0.2727	0.0479	0.0557	0.0648	0.0762	0.0886	0.103	0.122	0.142	0.167	0.196
x2 = 0.3599	0.0644	0.0748	0.087	0.102	0.119	0.138	0.163	0.19	0.223	0.262
x2 = 0.4576	0.0845	0.0982	0.115	0.134	0.157	0.183	0.216	0.252	0.296	0.349
x2 = 0.5675	0.111	0.128	0.15	0.175	0.205	0.238	0.282	0.329	0.387	0.455
x2 = 0.6923	0.131	0.153	0.179	0.209	0.248	0.289	0.343	0.4	0.473	0.559
x2 = 0.835	0.144	0.167	0.201	0.239	0.286	0.34	0.399	0.461	0.542	0.644

Cc1ccc2cc(Br)ccc2n1 + CO + O
solubility (g/100 g solution)
Settings	278.15 K	283.15 K	288.15 K	293.15 K	298.15 K	303.15 K	308.15 K	313.15 K	318.15 K	323.15 K
x2 = 0.05881	0.0126	0.0148	0.0176	0.0206	0.0242	0.0281	0.0331	0.0386	0.045	0.0524
x2 = 0.1233	0.0194	0.0228	0.0268	0.0314	0.0369	0.0428	0.0502	0.0586	0.0682	0.0793
x2 = 0.1942	0.0298	0.0349	0.0409	0.0477	0.056	0.0651	0.0761	0.0886	0.103	0.12
x2 = 0.2727	0.0444	0.052	0.0607	0.0706	0.0828	0.0963	0.112	0.131	0.152	0.177
x2 = 0.3599	0.0588	0.0705	0.0835	0.0981	0.115	0.135	0.156	0.18	0.21	0.245
x2 = 0.4576	0.0792	0.095	0.112	0.133	0.155	0.18	0.21	0.245	0.283	0.331
x2 = 0.5675	0.097	0.117	0.14	0.166	0.195	0.228	0.266	0.311	0.361	0.421
x2 = 0.6923	0.118	0.142	0.169	0.199	0.233	0.272	0.318	0.374	0.436	0.511
x2 = 0.835	0.133	0.159	0.19	0.227	0.27	0.317	0.368	0.429	0.504	0.593
